Reference: article PMC8004929, “Whole-Body Pharmacokinetics and Physiologically Based Pharmacokinetic Model for Monomethyl Auristatin E (MMAE)” (Journal of Clinical Medicine, 2021)
Square brackets hold non-standard residues; d marks the D form. Peptide text beside a SMILES is read from it. * marks the point of attachment. Dolaproine = CO[C@@H]([C@@H]1CCCN1)[C@@H](C)C(=O)O; Dil = CC[C@H](C)[C@H](NC)[C@@H](CC(=O)O)OC; X1 = C[C@@H](N*)[C@@H](O)c1ccccc1; NMeV = CN[C@H](C(=O)O)C(C)C

Experiments:
[1] = PBPK model fitting and parameter estimation for MMAE; settings: PBPK model estimate (CV%), mice, 0.1 mg/kg i.v.
Source text: The PBPK model included 16 tissues and a tumor compartment, and all of them were connected via blood flow and arranged anatomically. The tissue compartments included blood, lung, heart, kidney, muscle, skin, liver, brain, adipose, thymus, bone, small intestine, large intestine, spleen, pancreas, and other (i.e., carcass). All the other tissues, except those mentioned, were lumped into the ‘other’ compartment. The arterial blood to each organ was delivered by the efferent blood supplied from the lung, which perfused to each organ and then converged into the blood compartment, which represents the venous pool. Venous blood returned from the small intestine, large intestine, spleen, and pancreas were delivered to the liver. For the intestines, spleen, and pancreas, blood was delivered to the liver via the hepatic portal vein and mixed with liver artery blood after leaving the tissues. The delivery of the blood from the blood compartment to the lung completed the circulation of the flow. Based on in vitro, preclinical, and clinical data, the elimination of MMAE was assumed to be predominantly through the CYP3A4/5-mediated metabolic pathway and biliary/fecal excretion. Limited renal excretion (<10%) of MMAE has been reported. Therefore, we assumed that MMAE was eliminated solely via hepatic clearance (CL) from the liver interstitial space.
Each tissue compartment was further divided into the vascular, endothelial cell, interstitial, and cellular sub-compartments, and vascular space was divided into plasma and blood cells, as shown in Figure 1b. We aimed to make the sub-compartment division the same as our previously published platform antibody PBPK model, and thus, one can easily connect MMAE and an antibody PBPK model to build an ADC PBPK model. The rapid distribution of MMAE between plasma, endothelial cells, and interstitial space was assumed, and thus, the distribution rate between these compartments was set as a value 1000 times higher than the value of blood flow in each tissue. […] The partitioning of MMAE to the blood cells or cellular space was characterized using the KP values. The calculated KP values were adjusted for the ratios of cellular space volume to total tissue volume by dividing KP values with the ratio in each tissue. […] Only free MMAE was assumed to diffuse through the cellular membrane, and thus, the fraction of unbound drug in blood cells or tissue cellular space ( fu,t ) was calculated using Equation (2). (2) fu,t=fu,p/KP,i,
Equations (3) and (4) describe blood cell and plasma concentrations of MMAE, respectively. Equations that described MMAE concentration in the liver (Equations (5)–(9)), lung (Equations (10)–(14)), a typical tissue (Equations (15)–(19)), and tumor (Equations (20)–(23)) are provided below. In these equations, Qplasmai and QBClung are plasma flow and blood cell flow to the tissue i. Vplasma and VBC are volumes of central plasma and blood cell compartments. Vplasmai , VBCi , Vendoi , VISi , and Vcellulari are volumes of vascular, blood cell, endosomal, interstitial, and cellular compartments for tissue i. Cplasma and CBC are MMAE concentration in systemic plasma and blood cell compartments. Cplasmai , CBCi , Cendoi , CISi , and Ccellulari are MMAE concentration in vascular, blood cell, endosomal, interstitial, and cellular compartments of tissue i. PSBC is the permeability coefficient for the blood cell sub-compartment.
Physiological parameters for mice were obtained from our previously published PBPK model. Radius of the tumor blood capillary ( Rcap ), average distance between two capillaries ( Rkrough ), tumor void volume for MMAE ( ε ), P, D, and efflux rate of MMAE from the cells ( kout ) were obtained from the literature. […]

tumor cells = assay: Cell-level tumor disposition model parameters; design: species or system mice; settings: Estimated by PBPK model
Source text: Characterization and prediction of MMAE concentration at the site of action (i.e., tumor) is essential to establish a reliable exposure–efficacy relationship. Therefore, a cell-level tumor disposition model was incorporated in the MMAE PBPK model. […] Both pathways also depended on the vascular density and tumor size (Equation (20)). MMAE in the tumor extracellular space can influx into the tumor cell and bind to the tubulin. The tubulin-bound MMAE can dissociate from the target and efflux from tumor intracellular space into the extracellular space.
Physiological parameters for mice were obtained from our previously published PBPK model. Radius of the tumor blood capillary ( Rcap ), average distance between two capillaries ( Rkrough ), tumor void volume for MMAE ( ε ), P, D, and efflux rate of MMAE from the cells ( kout ) were obtained from the literature. […] The estimated parameters included (1) permeability coefficient ( PSi) in all tissues except the intestines, thymus, and other compartments for which observed data were not available, (2) intrinsic hepatic clearance ( CLint ), and (3) nonspecific uptake rate of MMAE into cancer cells ( kin) . The model was fitted to the data using the maximum likelihood estimation method in ADAPT version 5 (Biomedical Simulations Resource, University of Southern California, Los Angeles, CA, USA), using the variance model shown in Equation (23). […]

Compound: CC[C@H](C)[C@@H]([C@@H](CC(=O)N1CCC[C@H]1[C@H](OC)[C@@H](C)C(=O)N[C@H](C)[C@@H](O)c1ccccc1)OC)N(C)C(=O)[C@@H](NC(=O)[C@@H](NC)C(C)C)C(C)C [MMAE, Monomethyl auristatin E] (H-[NMeV]V[Dil][Dolaproine]-X1)
- CLint (liver intrinsic clearance) [1]: 137 (8.92) mL/h
- PSblood (permeability-surface area coefficient) ([1]; blood cells): 0.105 (12.6) mL/h
- PSbone (permeability-surface area coefficient) ([1]; bone): 0.568 (20.9) mL/h
- PSbrain (permeability-surface area coefficient) ([1]; brain): 0.00825 (40.4) mL/h
- PSfat (permeability-surface area coefficient) ([1]; fat): 0.588 (23.5) mL/h
- PSheart (permeability-surface area coefficient) ([1]; heart): 1.47 (17.1) mL/h
- PSkidney (permeability-surface area coefficient) ([1]; kidney): 14.2 (20.2) mL/h
- PSliver (permeability-surface area coefficient) ([1]; liver): 49.2 (48.4) mL/h
- PSlung (permeability-surface area coefficient) ([1]; lung): 2.47 (13.2) mL/h
- PSmuscle (permeability-surface area coefficient) ([1]; muscle): 3.16 (21.1) mL/h
- PSpancreas (permeability-surface area coefficient) ([1]; pancreas): 0.0657 (18.7) mL/h
- PSskin (permeability-surface area coefficient) ([1]; skin): 0.681 (30.6) mL/h
- PSspleen (permeability-surface area coefficient) ([1]; spleen): 0.457 (18.5) mL/h
- kin, first-order influx rate of MMAE from extracellular to intracellular space (tumor cells): 0.185 h⁻¹
